Columns and labels:
[1] = test system: absorption of sodium from the intestinal lumen; test: Fecal form score (FFS) 16 h after oral dose in rats; format: in vivo, rat; conditions: oral gavage, 16 h post-dose, scale 1-5
Method in brief: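 Eight-week-old Sprague-Dawley rats (n=6) dosed by oral gavage with compound or water vehicle between 4 and 5 PM, then housed in metabolic cages with food and water ad libitum. At 16 h, fecal form scored 1 (normal pellet) to 5 (liquid streams) by two observers; group mean reported.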

[2] = test system: phosphorus and calcium levels in the urine of rats; test: Urinary excretion of phosphate and calcium in rats (16 h overnight urine); format: in vivo, rat; conditions: rats, oral gavage, 16 h post-dose
[3] = test system: absorption of sodium from the intestinal lumen; test: Inhibition of intestinal sodium absorption: urinary sodium (uNa) 16 h after single oral dose in rats; format: in vivo, rat; conditions: oral gavage, 16 h post-dose
Method in brief: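 Eight-week-old Sprague-Dawley rats (n=6) given single oral gavage of compound or water vehicle in the late afternoon, then kept in metabolic cages with chow and water ad libitum. Urine collected over 16 h; sodium quantified by ion chromatography and expressed as % of vehicle mean, compared by one-way ANOVA with Dunnett's test.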

Rat NHE3 = target: T1, Rat NHE3 (Rattus norvegicus, UniProt P26433); test: Cell-based NHE3 activity under prompt conditions (OK cells, BCECF pH recovery), rat NHE3; conditions: prompt conditions; for IC50: read-out: Prompt Rat NHE3 pIC50 (converted)
T1 construct: expressed in transfected cells; host or cells: Opossum kidney (OK) cells (ATCC), electroporation
Method in brief: (§1)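 OK cells electroporated with rat or human NHE3 gene, loaded 30 min at room temperature with 5 μM BCECF-AM in NH4Cl-HEPES pH 7.4.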

Human NHE3 = target: T2, Human NHE3 (Homo sapiens, UniProt P48764); test: Cell-based NHE3 activity under prompt conditions (OK cells, BCECF pH recovery), human NHE3; conditions: prompt conditions
T2 construct: expressed in transfected cells; host or cells: Opossum kidney (OK) cells (ATCC), electroporation
T2 sequence (P48764 26-834): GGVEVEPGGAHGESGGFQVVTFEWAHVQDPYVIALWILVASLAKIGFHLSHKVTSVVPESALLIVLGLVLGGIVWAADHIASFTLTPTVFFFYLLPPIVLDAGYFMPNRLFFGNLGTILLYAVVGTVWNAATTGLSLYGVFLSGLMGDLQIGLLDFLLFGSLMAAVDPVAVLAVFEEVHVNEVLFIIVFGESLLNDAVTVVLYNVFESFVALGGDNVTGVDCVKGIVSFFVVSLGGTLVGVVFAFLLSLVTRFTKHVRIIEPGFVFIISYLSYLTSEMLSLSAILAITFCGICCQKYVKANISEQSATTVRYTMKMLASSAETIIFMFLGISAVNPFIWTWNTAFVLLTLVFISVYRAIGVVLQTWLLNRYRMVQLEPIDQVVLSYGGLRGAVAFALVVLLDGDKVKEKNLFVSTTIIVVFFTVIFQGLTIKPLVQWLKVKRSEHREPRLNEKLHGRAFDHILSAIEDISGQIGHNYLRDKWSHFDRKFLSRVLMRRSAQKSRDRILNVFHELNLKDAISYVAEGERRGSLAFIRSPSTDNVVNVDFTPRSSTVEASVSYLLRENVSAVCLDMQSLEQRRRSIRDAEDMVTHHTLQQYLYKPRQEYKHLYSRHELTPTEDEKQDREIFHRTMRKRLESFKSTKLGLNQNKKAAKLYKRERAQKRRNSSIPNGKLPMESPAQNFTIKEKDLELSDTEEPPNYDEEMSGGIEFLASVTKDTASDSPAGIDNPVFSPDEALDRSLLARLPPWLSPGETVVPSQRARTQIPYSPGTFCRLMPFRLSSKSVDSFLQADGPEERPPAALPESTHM
Method in brief: as §1

T1 sequence (P26433 29-831): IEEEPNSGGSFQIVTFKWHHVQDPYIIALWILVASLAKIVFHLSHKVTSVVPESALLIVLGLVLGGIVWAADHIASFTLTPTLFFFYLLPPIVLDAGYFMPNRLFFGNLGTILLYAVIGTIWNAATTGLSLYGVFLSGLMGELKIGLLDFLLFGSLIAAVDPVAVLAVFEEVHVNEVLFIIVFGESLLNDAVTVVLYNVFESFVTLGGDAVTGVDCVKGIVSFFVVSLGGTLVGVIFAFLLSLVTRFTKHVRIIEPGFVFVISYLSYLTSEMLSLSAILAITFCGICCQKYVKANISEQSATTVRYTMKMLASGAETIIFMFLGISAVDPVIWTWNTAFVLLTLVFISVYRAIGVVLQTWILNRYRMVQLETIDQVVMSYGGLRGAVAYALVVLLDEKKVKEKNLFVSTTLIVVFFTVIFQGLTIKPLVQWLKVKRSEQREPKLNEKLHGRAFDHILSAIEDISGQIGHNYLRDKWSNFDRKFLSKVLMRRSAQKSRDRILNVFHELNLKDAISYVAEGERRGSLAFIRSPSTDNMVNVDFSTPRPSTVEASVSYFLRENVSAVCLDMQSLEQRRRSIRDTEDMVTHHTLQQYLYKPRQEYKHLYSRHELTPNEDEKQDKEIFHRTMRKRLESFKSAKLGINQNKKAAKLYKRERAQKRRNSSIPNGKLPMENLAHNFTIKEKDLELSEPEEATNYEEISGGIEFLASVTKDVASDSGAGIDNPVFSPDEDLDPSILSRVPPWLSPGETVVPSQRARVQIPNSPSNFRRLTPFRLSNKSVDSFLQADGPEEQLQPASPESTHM

Row | IC50 (Rat NHE3) [nM] | Prompt Human NHE3 pIC50 (Human NHE3) | Prompt Rat NHE3 pIC50 (Rat NHE3) | Compound | Fecal Form Score average ([1]; dose 1 mg/kg) | Fecal Form Score average ([1]; dose 3 mg/kg) | Urine P % of control ([2]; dose 1 mg/kg) [%] | Urine P % of control ([2]; dose 3 mg/kg) [%] | Urine Na % of control ([3]; dose 1 mg/kg) [%] | Urine Na % of control ([3]; dose 3 mg/kg) [%] | Fecal Form Score average ([1]; dose 10 mg/kg) | Urine P % of control ([2]; dose 10 mg/kg) [%] | Urine Na % of control ([3]; dose 10 mg/kg) [%]
1 |  | 8.00 | 7.10 | CN(C)CC(=O)NC(CCC(=O)NCCOCCOCCNS(=O)(=O)c1cccc([C@@H]2CN(C)Cc3c(Cl)cc(Cl)cc32)c1)(CCC(=O)NCCOCCOCCNS(=O)(=O)c1cccc([C@@H]2CN(C)Cc3c(Cl)cc(Cl)cc32)c1)CCC(=O)NCCOCCOCCNS(=O)(=O)c1cccc([C@@H]2CN(C)Cc3c(Cl)cc(Cl)cc32)c1 [compound 128] | 1 | 2 | 90 | 58 | 46 | 35 |  |  | 
2 |  | 6.90 | 5.60 | CN1Cc2c(Cl)cc(Cl)cc2[C@H](c2cccc(S(=O)(=O)NCCOCCOCCNC(=O)CCC(CCC(=O)NCCOCCOCCNS(=O)(=O)c3cccc([C@@H]4CN(C)Cc5c(Cl)cc(Cl)cc54)c3)(CCC(=O)NCCOCCOCCNS(=O)(=O)c3cccc([C@@H]4CN(C)Cc5c(Cl)cc(Cl)cc54)c3)NC(=O)N(C)C)c2)C1 [compound 129] |  | 2 |  | 48 |  | 16 |  |  | 
3 |  | 7.20 | 6.10 | CNC(=O)NC(CCC(=O)NCCOCCOCCNS(=O)(=O)c1cccc([C@@H]2CN(C)Cc3c(Cl)cc(Cl)cc32)c1)(CCC(=O)NCCOCCOCCNS(=O)(=O)c1cccc([C@@H]2CN(C)Cc3c(Cl)cc(Cl)cc32)c1)CCC(=O)NCCOCCOCCNS(=O)(=O)c1cccc([C@@H]2CN(C)Cc3c(Cl)cc(Cl)cc32)c1 [compound 130] |  | 2 |  | 70 |  | 18 |  |  | 
4 |  | 7.30 | 6.50 | CN1Cc2c(Cl)cc(Cl)cc2[C@H](c2cccc(S(=O)(=O)NCCOCCOCCNC(=O)CCC(CCC(=O)NCCOCCOCCNS(=O)(=O)c3cccc([C@@H]4CN(C)Cc5c(Cl)cc(Cl)cc54)c3)(CCC(=O)NCCOCCOCCNS(=O)(=O)c3cccc([C@@H]4CN(C)Cc5c(Cl)cc(Cl)cc54)c3)NC(N)=O)c2)C1 [compound 133] |  | 2 |  | 67 |  | 23 |  |  | 

Further lines, the molecule ahead of its results:

Row | Compound | IC50 (Rat NHE3) [nM] | Prompt Human NHE3 pIC50 (Human NHE3) | Prompt Rat NHE3 pIC50 (Rat NHE3) | Fecal Form Score average ([1]; dose 1 mg/kg) | Fecal Form Score average ([1]; dose 3 mg/kg) | Urine P % of control ([2]; dose 1 mg/kg) [%] | Urine P % of control ([2]; dose 3 mg/kg) [%] | Urine Na % of control ([3]; dose 1 mg/kg) [%] | Urine Na % of control ([3]; dose 3 mg/kg) [%] | Fecal Form Score average ([1]; dose 10 mg/kg) | Urine P % of control ([2]; dose 10 mg/kg) [%] | Urine Na % of control ([3]; dose 10 mg/kg) [%]
5 | CN1Cc2c(Cl)cc(Cl)cc2[C@H](c2cccc(S(=O)(=O)NCCOCCOCCNC(=O)CCC(CCC(=O)NCCOCCOCCNS(=O)(=O)c3cccc([C@@H]4CN(C)Cc5c(Cl)cc(Cl)cc54)c3)(CCC(=O)NCCOCCOCCNS(=O)(=O)c3cccc([C@@H]4CN(C)Cc5c(Cl)cc(Cl)cc54)c3)N(C)C)c2)C1 [compound 124] | 67.6 | 7.50 |  | 1 | 2 | 154 | 61 | 69 | 22 |  |  | 
6 | O=C(NCCCCNC(=O)NCCOCCOCCNC(=O)Nc1cccc(O[C@H]2c3ccccc3C[C@@H]2N2CCCCC2)c1)NCCOCCOCCNC(=O)Nc1cccc(O[C@H]2c3ccccc3C[C@@H]2N2CCCCC2)c1 [compound 126] |  | 6.55 | <5.00 |  |  |  |  |  |  | 1 | 94 | 93
7 | CN(C)[C@H]1Cc2c(Cl)cc(Cl)cc2[C@@H]1Oc1ccc(S(=O)(=O)NCCOCCOCCNC(=O)NCCCCNC(=O)NCCOCCOCCNS(=O)(=O)c2ccc(O[C@H]3c4cc(Cl)cc(Cl)c4C[C@@H]3N(C)C)cc2)cc1 [compound 127] |  | 8.30 | 8.20 | 1 | 1 | 159 | 62 | 55 | 39 | 1 | 53 | 9
8 | CN1Cc2c(Cl)cc(Cl)cc2[C@H](c2cccc(S(=O)(=O)NCCOCCOCCN(C)C(=O)NCCCN(CCCNC(=O)N(C)CCOCCOCCNS(=O)(=O)c3cccc([C@@H]4CN(C)Cc5c(Cl)cc(Cl)cc54)c3)CCCNC(=O)N(C)CCOCCOCCNS(=O)(=O)c3cccc([C@@H]4CN(C)Cc5cc(Cl)cc(Cl)c54)c3)c2)C1 [compound 131] | 794 | 7.20 |  |  | 2 |  | 68 |  | 38 |  |  | 
9 | CCN(CCOCCOCCNC(=O)NCCCN(CCCNC(=O)NCCOCCOCCN(CC)S(=O)(=O)c1cccc([C@@H]2CN(C)Cc3c(Cl)cc(Cl)cc32)c1)CCCNC(=O)NCCOCCOCCN(CC)S(=O)(=O)c1cccc([C@@H]2CN(C)Cc3c(Cl)cc(Cl)cc32)c1)S(=O)(=O)c1cccc([C@@H]2CN(C)Cc3c(Cl)cc(Cl)cc32)c1 [compound 132] |  | 7.70 | 6.00 |  | 1 |  | 88 |  | 65 |  |  | 
10 | CN1Cc2c(Cl)cc(Cl)cc2[C@H](c2cccc(S(=O)(=O)N(C)CCOCCOCCNC(=O)CCN(CCC(=O)NCCOCCOCCN(C)S(=O)(=O)c3cccc([C@@H]4CN(C)Cc5c(Cl)cc(Cl)cc54)c3)CCC(=O)NCCOCCOCCN(C)S(=O)(=O)c3cccc([C@@H]4CN(C)Cc5c(Cl)cc(Cl)cc54)c3)c2)C1 [compound 134] |  | 6.50 | 6.50 |  | 1 |  | 72 |  | 64 |  |  | 
11 | N[C@@H]1CCCN([C@H]2Cc3c(Cl)cc(Cl)cc3[C@@H]2Oc2ccc(S(=O)(=O)NCCOCCOCCNC(=O)NCCCCNC(=O)NCCOCCOCCNS(=O)(=O)c3ccc(O[C@H]4c5cc(Cl)cc(Cl)c5C[C@@H]4N4CCC[C@@H](N)C4)cc3)cc2)C1 [compound 135] |  | 8.45 | 7.40 | 1 | 1 | 92 | 44 | 100 | 94 | 2 | 85 | 58
12 | CN(C)[C@H]1Cc2ccc(F)cc2[C@@H]1Oc1ccc(S(=O)(=O)NCCOCCOCCNC(=O)NCCCCNC(=O)NCCOCCOCCNS(=O)(=O)c2ccc(O[C@H]3c4cc(F)ccc4C[C@@H]3N(C)C)cc2)cc1 [compound 136] |  | 7.70 | <5.00 |  |  |  |  |  |  | 1 | 93 | 104
